{
  "source": "the supplement of paper PMC10307832",
  "experiment_in_all_cases": "relative viability (nuclei count vs DMSO), 5 days (fraction); higher = more cells survive",
  "key": {"[1]": {"test_system": "NCI-H1793", "outline": "(§1)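 Values are medians from duplicate plates. Each reflects relative viability, defined as the nuclei count of treated wells over that of vehicle wells. Lung cancer cell lines in 1536-well plates were pin-tool dosed one day after seeding with one drug alone or with a fixed anchor-drug dose plus five library-drug doses (not always all listed) in √10 steps, then fixed, stained and imaged at 4× after 5 days.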"}, "[2]": {"test_system": "NCI-H1395", "outline": "as §1"}, "[3]": {"test_system": "NCI-H2085", "outline": "as §1"}, "[4]": {"test_system": "H3255", "outline": "as §1"}, "[5]": {"test_system": "SK-MES-1", "outline": "as §1"}, "[6]": {"test_system": "ChaGo-K-1", "outline": "as §1"}, "[7]": {"test_system": "NCI-H520", "outline": "as §1"}, "[8]": {"test_system": "COR-L23", "outline": "as §1"}, "[9]": {"test_system": "HCC-827", "outline": "as §1"}, "[10]": {"test_system": "NCI-H2405", "outline": "as §1"}, "[11]": {"test_system": "HCC-44", "outline": "as §1"}, "[12]": {"test_system": "NCI-H838", "outline": "as §1"}, "[13]": {"test_system": "EMC-BAC-2", "outline": "as §1"}, "[14]": {"test_system": "NCI-H1651", "outline": "as §1"}, "[15]": {"test_system": "LU99A", "outline": "as §1"}, "[16]": {"test_system": "NCI-H2023", "outline": "as §1"}, "[17]": {"test_system": "NCI-H1944", "outline": "as §1"}, "[18]": {"test_system": "EPLC-272H", "outline": "as §1"}, "[19]": {"test_system": "NCI-H2087", "outline": "as §1"}},
  "data": [
    {"molecule": "CC(=O)O[C@@]12CO[C@@H]1C[C@H](O)[C@@]1(C)C(=O)[C@H](O)C3=C(C)[C@@H](OC(=O)[C@H](O)[C@@H](NC(=O)OC(C)(C)C)c4ccccc4)C[C@@](O)([C@@H](OC(=O)c4ccccc4)[C@H]21)C3(C)C", "note": "[Docetaxel] + CC1(C)CCC(c2ccc(Cl)cc2)=C(CN2CCN(c3ccc(C(=O)NS(=O)(=O)c4ccc(N[C@H](CCN5CCOCC5)CSc5ccccc5)c(S(=O)(=O)C(F)(F)F)c4)cc3)CC2)C1 [Navitoclax] (partner 0.5 µM)", "values": [
      {"measurement": "relative viability", "setting": "[1]; first compound 0.0002 µM", "value": 0.337},
      {"measurement": "relative viability", "setting": "[1]; first compound 0.000632 µM", "value": 0.432},
      {"measurement": "relative viability", "setting": "[1]; first compound 0.002 µM", "value": 0.292},
      {"measurement": "relative viability", "setting": "[1]; first compound 0.006325 µM", "value": 0.228},
      {"measurement": "relative viability", "setting": "[1]; first compound 0.02 µM", "value": 0.131},
      {"measurement": "relative viability", "setting": "[2]; first compound 0.0002 µM", "value": 1.15},
      {"measurement": "relative viability", "setting": "[2]; first compound 0.000632 µM", "value": 1.1},
      {"measurement": "relative viability", "setting": "[2]; first compound 0.002 µM", "value": 0.895},
      {"measurement": "relative viability", "setting": "[2]; first compound 0.006325 µM", "value": 0.394},
      {"measurement": "relative viability", "setting": "[2]; first compound 0.02 µM", "value": 0.357},
      {"measurement": "relative viability", "setting": "[3]; first compound 0.0002 µM", "value": 1.05},
      {"measurement": "relative viability", "setting": "[3]; first compound 0.000632 µM", "value": 1.03},
      {"measurement": "relative viability", "setting": "[3]; first compound 0.002 µM", "value": 0.68},
      {"measurement": "relative viability", "setting": "[3]; first compound 0.006325 µM", "value": 0.476},
      {"measurement": "relative viability", "setting": "[3]; first compound 0.02 µM", "value": 0.232},
      {"measurement": "relative viability", "setting": "[4]; first compound 0.0002 µM", "value": 0.399},
      {"measurement": "relative viability", "setting": "[4]; first compound 0.000632 µM", "value": 0.46},
      {"measurement": "relative viability", "setting": "[4]; first compound 0.002 µM", "value": 0.181},
      {"measurement": "relative viability", "setting": "[4]; first compound 0.006325 µM", "value": 0.141},
      {"measurement": "relative viability", "setting": "[4]; first compound 0.02 µM", "value": 0.102},
      {"measurement": "relative viability", "setting": "[5]; first compound 0.0002 µM", "value": 1.19},
      {"measurement": "relative viability", "setting": "[5]; first compound 0.000632 µM", "value": 0.692},
      {"measurement": "relative viability", "setting": "[5]; first compound 0.002 µM", "value": 0.251},
      {"measurement": "relative viability", "setting": "[5]; first compound 0.006325 µM", "value": 0.122},
      {"measurement": "relative viability", "setting": "[5]; first compound 0.02 µM", "value": 0.108},
      {"measurement": "relative viability", "setting": "[6]; first compound 0.0002 µM", "value": 1.02},
      {"measurement": "relative viability", "setting": "[6]; first compound 0.000632 µM", "value": 0.597},
      {"measurement": "relative viability", "setting": "[6]; first compound 0.002 µM", "value": 0.485},
      {"measurement": "relative viability", "setting": "[6]; first compound 0.006325 µM", "value": 0.429},
      {"measurement": "relative viability", "setting": "[6]; first compound 0.02 µM", "value": 0.232},
      {"measurement": "relative viability", "setting": "[7]; first compound 0.0002 µM", "value": 1.07},
      {"measurement": "relative viability", "setting": "[7]; first compound 0.000632 µM", "value": 0.86},
      {"measurement": "relative viability", "setting": "[7]; first compound 0.002 µM", "value": 0.283},
      {"measurement": "relative viability", "setting": "[7]; first compound 0.006325 µM", "value": 0.16},
      {"measurement": "relative viability", "setting": "[7]; first compound 0.02 µM", "value": 0.156},
      {"measurement": "relative viability", "setting": "[8]; first compound 0.0002 µM", "value": 0.899},
      {"measurement": "relative viability", "setting": "[8]; first compound 0.000632 µM", "value": 0.939},
      {"measurement": "relative viability", "setting": "[8]; first compound 0.002 µM", "value": 0.373},
      {"measurement": "relative viability", "setting": "[8]; first compound 0.006325 µM", "value": 0.0756},
      {"measurement": "relative viability", "setting": "[8]; first compound 0.02 µM", "value": 0.0656},
      {"measurement": "relative viability", "setting": "[9]; first compound 0.0002 µM", "value": 1.02},
      {"measurement": "relative viability", "setting": "[9]; first compound 0.000632 µM", "value": 1.02},
      {"measurement": "relative viability", "setting": "[9]; first compound 0.002 µM", "value": 0.943},
      {"measurement": "relative viability", "setting": "[9]; first compound 0.006325 µM", "value": 0.334},
      {"measurement": "relative viability", "setting": "[9]; first compound 0.02 µM", "value": 0.252},
      {"measurement": "relative viability", "setting": "[10]; first compound 0.0002 µM", "value": 0.907},
      {"measurement": "relative viability", "setting": "[10]; first compound 0.000632 µM", "value": 0.543},
      {"measurement": "relative viability", "setting": "[10]; first compound 0.002 µM", "value": 0.313},
      {"measurement": "relative viability", "setting": "[10]; first compound 0.006325 µM", "value": 0.203},
      {"measurement": "relative viability", "setting": "[10]; first compound 0.02 µM", "value": 0.119},
      {"measurement": "relative viability", "setting": "[11]; first compound 0.0002 µM", "value": 0.962},
      {"measurement": "relative viability", "setting": "[11]; first compound 0.000632 µM", "value": 0.934},
      {"measurement": "relative viability", "setting": "[11]; first compound 0.002 µM", "value": 0.362},
      {"measurement": "relative viability", "setting": "[11]; first compound 0.006325 µM", "value": 0.242},
      {"measurement": "relative viability", "setting": "[11]; first compound 0.02 µM", "value": 0.149},
      {"measurement": "relative viability", "setting": "[12]; first compound 0.0002 µM", "value": 1.15},
      {"measurement": "relative viability", "setting": "[12]; first compound 0.000632 µM", "value": 1.22},
      {"measurement": "relative viability", "setting": "[12]; first compound 0.002 µM", "value": 0.29},
      {"measurement": "relative viability", "setting": "[12]; first compound 0.006325 µM", "value": 0.176},
      {"measurement": "relative viability", "setting": "[12]; first compound 0.02 µM", "value": 0.135},
      {"measurement": "relative viability", "setting": "[13]; first compound 0.0002 µM", "value": 1.14},
      {"measurement": "relative viability", "setting": "[13]; first compound 0.000632 µM", "value": 1.11},
      {"measurement": "relative viability", "setting": "[13]; first compound 0.002 µM", "value": 0.735},
      {"measurement": "relative viability", "setting": "[13]; first compound 0.006325 µM", "value": 0.272},
      {"measurement": "relative viability", "setting": "[13]; first compound 0.02 µM", "value": 0.148},
      {"measurement": "relative viability", "setting": "[14]; first compound 0.0002 µM", "value": 1.18},
      {"measurement": "relative viability", "setting": "[14]; first compound 0.000632 µM", "value": 0.968},
      {"measurement": "relative viability", "setting": "[14]; first compound 0.002 µM", "value": 0.233},
      {"measurement": "relative viability", "setting": "[14]; first compound 0.006325 µM", "value": 0.0921},
      {"measurement": "relative viability", "setting": "[14]; first compound 0.02 µM", "value": 0.0627},
      {"measurement": "relative viability", "setting": "[15]; first compound 0.0002 µM", "value": 0.865},
      {"measurement": "relative viability", "setting": "[15]; first compound 0.000632 µM", "value": 0.533},
      {"measurement": "relative viability", "setting": "[15]; first compound 0.002 µM", "value": 0.277},
      {"measurement": "relative viability", "setting": "[15]; first compound 0.006325 µM", "value": 0.201},
      {"measurement": "relative viability", "setting": "[15]; first compound 0.02 µM", "value": 0.148},
      {"measurement": "relative viability", "setting": "[16]; first compound 0.0002 µM", "value": 1.01},
      {"measurement": "relative viability", "setting": "[16]; first compound 0.000632 µM", "value": 0.995},
      {"measurement": "relative viability", "setting": "[16]; first compound 0.002 µM", "value": 0.176},
      {"measurement": "relative viability", "setting": "[16]; first compound 0.006325 µM", "value": 0.168},
      {"measurement": "relative viability", "setting": "[16]; first compound 0.02 µM", "value": 0.0908},
      {"measurement": "relative viability", "setting": "[17]; first compound 0.0002 µM", "value": 1.07},
      {"measurement": "relative viability", "setting": "[17]; first compound 0.000632 µM", "value": 1.05},
      {"measurement": "relative viability", "setting": "[17]; first compound 0.002 µM", "value": 0.942},
      {"measurement": "relative viability", "setting": "[17]; first compound 0.006325 µM", "value": 0.297},
      {"measurement": "relative viability", "setting": "[17]; first compound 0.02 µM", "value": 0.155},
      {"measurement": "relative viability", "setting": "[18]; first compound 0.0002 µM", "value": 1.12},
      {"measurement": "relative viability", "setting": "[18]; first compound 0.000632 µM", "value": 0.889},
      {"measurement": "relative viability", "setting": "[18]; first compound 0.002 µM", "value": 0.374},
      {"measurement": "relative viability", "setting": "[18]; first compound 0.006325 µM", "value": 0.126},
      {"measurement": "relative viability", "setting": "[18]; first compound 0.02 µM", "value": 0.0732},
      {"measurement": "relative viability", "setting": "[19]; first compound 0.0002 µM", "value": 0.964},
      {"measurement": "relative viability", "setting": "[19]; first compound 0.000632 µM", "value": 0.446},
      {"measurement": "relative viability", "setting": "[19]; first compound 0.002 µM", "value": 0.276},
      {"measurement": "relative viability", "setting": "[19]; first compound 0.006325 µM", "value": 0.154},
      {"measurement": "relative viability", "setting": "[19]; first compound 0.02 µM", "value": 0.129}
    ]}
  ]
}
